Experiments:
[1] = test system: glycosylated ORF8 binding to immune monocytes; test: Immune cell binding assay: peptide inhibition of glycosylated ORF8 binding to monocytes; type: cell-based; settings: 50 μM peptide with 5 μM FITC-labeled ORF8; human monocytes; 4 h at 37°C; flow cytometry; Fig. 6C and D
[2] = test system: deglycosylated ORF8 binding to immune monocytes; test: Immune cell binding assay: peptide inhibition of deglycosylated ORF8 binding to monocytes; type: cell-based; settings: 50 μM peptide with 5 μM FITC-labeled deglycosylated ORF8; human monocytes; 4 h at 37°C; flow cytometry; Fig. 6E and F
[3] = test system: human immune monocytes (from PBMC); test: Binding of ORF8 protein forms to immune monocytes (flow cytometry); type: cell-based
[4] = after deglycosylation (PNGase F); observation during the experiments

## TNERLCVRFE [P3, 10-residue peptide derived from IL17RA (aa89-98) designed against ORF8]
[1]
  inhibition of glycosylated ORF8 binding to immune cells: no significant inhibitory effect
[2]
  inhibition of deglycosylated ORF8 binding to immune monocytes: significantly inhibited

## deglycosylated ORF8: ORF8 protein treated with PNGase F enzyme overnight
[3]; FITC-labeled ORF8, human monocytes, flow cytometry, Fig. 6A and B
  binding to immune cells relative to glycosylated ORF8: 2 fold

## delipidated ORF8: ORF8 protein treated with 0.5% Triton X-100 overnight
[3]; co-incubated with human PBMC cells, lipid removed with 0.5% Triton X-100 overnight, Fig. 4G and H
  binding to human immune cells compared with ORF8 with lipid modifications: higher percentage of binding

## glycosylated ORF8: recombinant SARS-CoV-2 ORF8 (residues 16–121, MBP/His tag) expressed in 293F cells, glycosylated at N78
[3]; FITC-labeled ORF8, 5 μM, human monocytes, flow cytometry, Fig. 6A and B
  binding to immune cells: weak binding
[4]
  solubility of ORF8: deteriorated

From article PMC10434001, “Glycosylated, Lipid-Binding, CDR-Like Domains of SARS-CoV-2 ORF8 Indicate Unique Sites of Immune Regulation” (Microbiology Spectrum, 2023)
